Measurements taken from the NIST ThermoML archive (doi:10.1016/j.tca.2012.05.004).
Numbers after ± are expanded uncertainties.

Settings: 101.33 kPa, Liquid, Vibrating tube method

SMILES	mass density (288.15 K) [kg/m3]	mass density (293.15 K) [kg/m3]	mass density (298.15 K) [kg/m3]	mass density (303.15 K) [kg/m3]	mass density (308.15 K) [kg/m3]	mass density (313.15 K) [kg/m3]
CCCCC(C)O (stereo unspecified) [2-hexanol]	818.064 ± 0.3	814.174 ± 0.3	810.227 ± 0.31	806.225 ± 0.31	802.16 ± 0.31	798.04 ± 0.31
CCC(C)O (stereo unspecified) [butan-2-ol]	810.879 ± 0.3	806.837 ± 0.31	802.716 ± 0.31	798.513 ± 0.31	794.218 ± 0.31	789.832 ± 0.31
CC(C)O [propan-2-ol]	789.337 ± 0.31	785.198 ± 0.31	780.987 ± 0.31	776.718 ± 0.31	772.371 ± 0.31	767.935 ± 0.31
CCCC(C)O (stereo unspecified) [pentan-2-ol]	813.272 ± 0.3	809.305 ± 0.31	805.27 ± 0.31	801.157 ± 0.31	796.97 ± 0.31	792.702 ± 0.31
CCCCCCC(C)O (stereo unspecified) [2-octanol]	824.028 ± 0.3	820.313 ± 0.3	816.559 ± 0.3	812.768 ± 0.3	808.94 ± 0.31	805.079 ± 0.31
ClCCCl [1,2-dichloroethane]	1259.99 ± 0.58	1252.77 ± 0.57	1245.49 ± 0.56	1238.18 ± 0.56	1230.84 ± 0.55	1223.46 ± 0.54
